Test results as given in patent US6984649B1, “Pyridine derivatives” (Bayer Aktiengesellschaft, priority 2000, dated 2006).
Counter-ions that a name gives are not always drawn. Like-named read-outs stand apart in the source and are kept apart here.

System: A549 human lung epithelium cell line
Test: RANTES production in response to TNF-α from A549 cells
Type: cell-based
Conditions: 100 ng/ml TNF-α, read-out: Cellular activity grade (A549) (Cellular IC50)
Method: [The Measurement of RANTES Production in Response to TNF-α from A549 Cells]
(1) Preparation of A549 Cells
• The A549 human lung epithelium cell line (ATCC […]) was maintained in Dulbecco's modified Eagle's medium (D-MEM, Nikken Biomedical Institute) supplemented with 10% FCS (Gibco), 100 U/ml penicillin, 100 μg/ml streptomycin, and 2 mM glutamine (culture medium). Forty thousand (4×10^4) cells (80 μl/well) were seeded in each well of 96 well flat-bottom tissue culture plate (Falcon #3072). The plate was allowed to stand for 2 hrs, thus the cells were adhered to the bottom of each well. To the each well was added 10 μl vehicle (1% DMSO), serial dilutions of test compounds in 1% DMSO, or 5 nM Dexamethasone in 1% DMSO as a reference. The mixture (90 μl/well) was incubated for 1 hr at 37° C. After 1 hr, 1 μg/ml TNF-α (10 μl) in culture medium was added to the mixture to obtain 100 μl of reaction mixture. The reaction mixture was cultured for 24 hrs to stimulate the cells with 100 ng/ml TNF-α. Cells with vehicle without TNF-α stimulation were also prepared. (2) Measurement of RANTES Production • Then the concentration of RANTES released from the cells in the supernatants of each well was determined using a quantitative sandwich enzyme immunoassay technique. First, 2 μg/ml mouse anti-huRANTES mAb (R&D Systems, #mAb678) in PBS buffer (pH 7.4, 100 μl) was put in each well of 96-well NUNC fluoro plate (Nalge Nunc, New York USA) (Final 200 ng/well) and the plate was allowed to stand for overnight at 4° C. to be coated by the antibody. Each well of the plate was then washed with 350 μl wash buffer (0.05% Tween-20, 0.85% NaCl, and 25 mM Tris/HCl pH7.4) for three times. Blocking buffer containing 1% BSA (Sigma 99% pure, 100 g), 5% sucrose (Nacalai tesque, 99% pure, 500 g), and 0.02% azide (Nacalai tesque, 100%, 500 g) were added (200 μl) to each well and then the plate was allowed to stand for 4 hours to stabilize the coated antibody. Next, 50 μl supernatants of cell culture prepared in (1) above were put in each well of the 96-well NUNC fluoro plate with coated antibody. Recombinant Human RANTES (Pepro Tech, Inc. #300-06) was used as the standard for the determination of RANTES production (linear range between 1 and 10 ng/ml). Eu-labelled mouse anti-huRANES mAb (60 ng/ml: R&D Systems, #mAb278) in PBS supplemented by 1% BSA and 0.05% Tween 20 was added (50 μl) to each well. The reaction mixtures were incubated at room temperature for 4 hrs. After washing with wash buffer (0.05% Tween-20, 0.85% NaCl, and 25 mM Tris/HCl pH7.4, 350 μl/well) for 5 times with the use of a Sera Washer (Bio-Tech, #MW-96R), the enhancement solution (DELFIA, #1244-405, 100 μl/well) was added to each well. The plate was incubated for 10 minutes at room temperature with moderate shaking. Fluorescent intensity was measured using a DELFIA fluorimeter (Wallac). Excitation was performed at 340 nm and emission was measured at 615 nm. [The Measurement of TNF-α Production in Response to LPS from Peripheral Blood Mononuclear Cells (PBMC)] (1) Preparation of PBMC • Human PBMC were prepared by first obtaining blood from healthy donors and isolating the cells from the blood. The isolation was done by Ficoll gradient-centrifugation method using Ficoll Pacque (Pharmacia #17-1440-02). Within three hours from donation, the isolated PBMC was used. After three times washing with PBS, PBMC were resuspended with RPMI 1640 (Nikken BioMedical Institute) supplemented with 10% FCS (Gibco), 100 U/ml penicillin, 100 μg/ml streptomycin, and 2 mM glutamine (culture medium). The cells (1×10^5 in 150 μL/well) were seeded in each well of 96 well flat-bottom tissue culture plate (Falcon #3072). To the each well was added 20 μl vehicle (1% DMSO), serial dilutions of test compounds in 1% DMSO, or 250 nM Dexamethasone in 1% DMSO as a reference. The mixture (170 μl/well) was incubated for 1 hr at 37° C. After 1 hr, 20 ng/ml LPS (30 μl) in culture medium was added to the mixture to obtain 200 μl of reaction mixture. […]

SMILES | IC50 (Homo sapiens, A549, A549 cells) | IC50 (A549 cells)
N#Cc1c(C2CCCNC2)cc(-c2sccc2O)nc1N (centres unmarked) [Example 1-7, 2-amino-6-(3-hydroxy-2-thienyl)-4-(3-piperidinyl)nicotinonitrile hydrobromide] | < 1000 nM | 
CC1(c2cc(-c3ccccc3O)nc(N)c2C#N)CCCNC1 (centres unmarked) [Example 1-3, 2-amino-6-(2-hydroxyphenyl)-4-(3-methylpiperidin-3-yl)-nicotinonitrile hydrochloride] | 1000 to 10000 nM | 
N#Cc1c(C2=CCCNC2)cc(-c2ccccc2O)nc1N [Example 1-9, 2′-amino-6′-(2-hydroxyphenyl)-1,2,5,6-tetrahydro-3,4′-bipyridine-3′-carbonitrile hydrochloride] | < 1000 nM | 
O=C1Nc2nc(-c3ccccc3O)cc(C3=CCCNC3)c2CO1 [Example 18-6] | < 1000 nM | 
Nc1nc(-c2ccccc2O)cc2c1CNC2Cc1ccccc1 (stereo in doubt) [Example 20-3, 2-[(1S)-4-amino-1-benzyl-2,3-dihydro-1H-pyrrolo[3,4-c]pyridin-6-yl]phenol hydrochloride] |  | 1000 to 10000 nM
NC(Cc1ccccc1)c1cc(-c2ccccc2O)nc2c1COC(=O)N2 (centres unmarked) [Example 18-4/18-5, 5-(1-Amino-2-phenyl-ethyl)-7-(2-hydroxy-phenyl)-1,4-dihydro-pyrido[2,3-d][1,3]oxazin-2-one hydrochloride] | 1000 to 10000 nM | 
N#Cc1c(N2CCC(C(N)=O)CC2)cc(-c2ccccc2O)nc1N [Example 34-2, 1-[2-amino-3-cyano-6-(2-hydroxyphenyl)-4-pyridinyl]-4-piperidinecarboxamide] | > 10000 nM | 
N#Cc1c(C2CCCC(C(=O)O)C2)cc(-c2ccccc2O)nc1N (centres unmarked) [Example 1-8, 3-[2-amino-3-cyano-6-(2-hydroxyphenyl)-4-pyridinyl]cyclohexanecarboxylic acid] | > 10000 nM | 
O=c1[nH]c2nc(-c3ccccc3O)cc(C3CCCNC3)c2c(=O)n1-c1ccccc1 (centres unmarked) [Example 7-3, 7-(2-hydroxyphenyl)-3-phenyl-5-(3-piperidinyl)pyrido[2,3-d]pyrimidine-2,4(1H,3H)-dione hydrochloride] | > 10000 nM | 
N#Cc1c(NC2CCCNC2)cc(-c2ccccc2O)nc1N (centres unmarked) [Example 34-4, 2-amino-6-(2-hydroxyphenyl)-4-(3-piperidinylamino)nicotinonitrile hydrochloride] | < 1000 nM | 
CC(O)c1c(C2CCCNC2)cc(-c2ccccc2O)nc1N (centres unmarked) [Example 15-1, 2-[6-amino-5-(1-hydroxyethyl)-4-(3-piperidinyl)-2-pyridinyl]phenol hydrochloride] | 1000 to 10000 nM | 
CCCNc1nc(-c2ccccc2O)cc(C2CCCNC2)c1C#N (centres unmarked) [Example 4-2, 6-(2-hydroxyphenyl)-4-(3-piperidinyl)-2-(propylamino)nicotinonitrile hydrochloride] | > 10000 nM | 

Further lines, results first:

IC50 (Homo sapiens, A549, A549 cells) | IC50 (A549 cells) | SMILES
< 1000 nM |  | N#Cc1c(C2CCCNC2)cc(-c2c(O)cccc2OCc2ccccc2)nc1N (centres unmarked) [Example 2-2, 2-amino-6-[2-(benzyloxy)-6-hydroxyphenyl]-4-(3-piperidinyl)nicotinonitrile hydrochloride]
< 1000 nM |  | Nc1nc(-c2c(O)cccc2F)cc(C2CCCNC2)c1CO (centres unmarked) [Example 11-2, 2-[6-amino-5-(hydroxymethyl)-4-(3-piperidinyl)-2-pyridinyl]-3-fluorophenol hydrochloride]
1000 to 10000 nM |  | O=C(Nc1cc2c(C3CCCNC3)cc(-c3c(O)cccc3OCC3CC3)nc2[nH]c1=O)c1ccccc1 (centres unmarked) [Example 29-2, N-[7-[2-(cyclopropylmethoxy)-6-hydroxyphenyl]-2-oxo-5-(3-piperidinyl)-1,2-dihydro-1,8-naphthyridin-3-yl]benzamide hydrochloride]
< 1000 nM |  | Nc1nc(-c2c(O)cccc2OCC2CC2)cc(C2CCCNC2)c1CNC(=O)NC1CCCCC1 (centres unmarked) [Example 23-3, N-{[2-amino-6-[2-(cyclopropylmethoxy)-6-hydroxyphenyl]-4-(3-piperidinyl)-3-pyridinyl]methyl}-N′-cyclohexylurea hydrochloride]
< 1000 nM |  | CC(=O)NCc1c(C2CCCNC2)cc(-c2c(O)cccc2OCC2CC2)nc1N (centres unmarked) [Example 23-1, N-{[2-amino-6-[2-(cyclopropylmethoxy)-6-hydroxyphenyl]-4-(3-piperidinyl)-3-pyridinyl]methyl}acetamide hydrochoride]
1000 to 10000 nM |  | Nc1ncnc2nc(-c3c(O)cccc3OCC3CC3)cc(C3CCCNC3)c12 (centres unmarked) [Example 32-1, 2-[4-amino-5-(3-piperidinyl)pyrido[2,3-d]pyrimidin-7-yl]-3-(cyclopropylmethoxy)phenol hydrochloride]
1000 to 10000 nM |  | NC(=O)c1c(C2CCCNC2)cc(-c2ccccc2O)nc1N (centres unmarked) [Example 7-1, 2-amino-6-(2-hydroxyphenyl)-4-(3-piperidinyl)nicotinamide hydrochloride]
1000 to 10000 nM |  | Nc1nc(-c2c(O)cccc2OCC2CC2)cc(C2CCCNC2)c1CSc1ccccc1 (centres unmarked) [Example 21-1, 2-[6-amino-5-[(phenylsulfanyl)methyl]-4-(3-piperidinyl)-2-pyridinyl]-3-(cyclopropylmethoxy)phenol hydrochloride]
< 1000 nM |  | CC(=O)N1Cc2c(C3CCCNC3)cc(-c3c(O)cccc3OCC3CC3)nc2NC1=O (centres unmarked) [Example 24-1, 3-acetyl-7-[2-(cyclopropylmethoxy)-6-hydroxyphenyl]-5-(3-piperidinyl)-3,4-dihydropyrido[2,3-d]pyrimidin-2(1H)-one hydrochloride]
< 1000 nM |  | N#Cc1c(C2CCNCC2)cc(-c2c(O)cccc2OCC2CC2)nc1N [Example 2-3, hydrochloride]
< 1000 nM |  | N#Cc1c(C2CCCNC2)cc(-c2c(O)cccc2O)nc1N (centres unmarked) [Example 2-1, 2-amino-6-(2,6-dihydroxyphenyl)-4-(3-piperidinyl)nicotinonitrile hydrochloride]
< 1000 nM |  | Nc1nc(-c2ccccc2O)cc(C2CCCNC2)c1CO (centres unmarked) [Example 11-1, 2-[6-amino-5-(hydroxymethyl)-4-(3-piperidinyl)-2-pyridinyl]phenol hydrochloride]
< 1000 nM |  | CC(=O)c1c(C2CCCNC2)cc(-c2ccccc2O)nc1N (centres unmarked) [Example 15-3, 1-[2-amino-6-(2-hydroxyphenyl)4-(3-piperidinyl)-3-pyridinyl]ethanone hydrochloride]
1000 to 10000 nM |  | Nc1nc(-c2ccccc2O)cc(C2CCCNC2)c1C(=O)O (centres unmarked) [Example 9-2, 2-amino-6-(2-hydroxyphenyl)-4-(3-piperidinyl)nicotinic acid hydrochloride]
< 1000 nM |  | COCc1c(C2CCCNC2)cc(-c2ccccc2O)nc1N (centres unmarked) [Example 13-1, 2-[6-amino-5-(methoxymethyl)-4-(3-piperidinyl)-2-pyridinyl]phenol hydrochloride]
< 1000 nM |  | Oc1cccc(OCC2CC2)c1-c1cc(C2CCCNC2)c2c(n1)NCOC2 (centres unmarked) [Example 17-1, 3-(cyclopropylmethoxy)-2-[5-(3-piperidinyl)-1,4-dihydro-2H-pyrido[2,3-d][1,3]oxazin-7-yl]-phenol hydrochloride]
< 1000 nM |  | Nc1nc(-c2ncccc2O)cc(C2CCCNC2)c1CO (centres unmarked) [Example 11-3, 6′-amino-5′-(hydroxymethyl)-4′-3-piperidinyl)-2,2′-bipyridin-3-ol hydrochloride]
